Laboratory results reported in patent publication EP1534672B1, “RETINOL DERIVATIVES, THEIR USE IN THE TREATMENT OF CANCER AND FOR POTENTIATING THE EFFICACY OF OTHER CYTOTOXIC AGENTS” (priority 2002, dated 2004).
Where two headings read alike, the source gives them in different places. Marks after values point to notes of the source that are not given here.

Experiments:
Assay in all cases: Drug cytotoxicity testing (viable cell count, trypan blue exclusion, cell growth inhibition)
Type in all cases: cell-based
[1] = tested on: Human Breast Adenocarcinoma Cell Line MDA-MB-231; settings: for IC50 / inhibition at 0.1 µM / inhibition at 0.01 µM / inhibition at 0.001 µM: Homo sapiens; for IC50: calculated from three concentrations, read-out: IC50 mol/L (a); for inhibition at 0.1 µM / inhibition at 0.01 µM / inhibition at 0.001 µM: read-out: Cell Growth Inhibition, %
Procedure, shortened: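 A549 cells (10 × 10^3/well) and MDA-MB-231 cells (12 × 10^3/well) were left to adhere for 24 h, then exposed to drugs in medium with 5% FBS for 2 days. Viable cells were counted by trypan blue exclusion after trypsinization. Growth inhibition (%) = (control − test)/control × 100, from three determinations in six replicates each.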

[2] = tested on: Human Lung Carcinoma Cell Line A549
[3] = tested on: Human Ovary Adenocarcinoma Cell Line SKOV-3; settings: alone or in formulation at molar ratio 1:6
Description: (§1) MDA-MB-231 cells were propagated in MEM culture medium with 2 mM L-glutamine, 10% heat-inactivated fetal bovine serum (FBS) and antibiotics. DU 145 cells were cultured in MEM culture medium containing 2 mM L-glutamine, 1 mM sodium pyruvate, 10% FBS and antibiotics. SKOV-3 cells were cultured in McCoy's 5A culture medium, supplemented with 1,5 mM L-glutamine, 10% FBS and antibiotics. A549 cells were cultured in Ham's F-12 culture medium with 1 mM L-glutamine, 10% FBS and antibiotics. All media and supplements were purchased from Sigma-Aldrich (St.Louis, MO, USA). Cell propagation of all lines was carried out in Falcon™ 25 cm^2 cultivation flasks (Becton Dickinson Labware).
(§2) Drug cytotoxicity testing was carried out with using Falcon™ 96-well cultivation plates for adherent cells (Becton Dickinson Labware). These plates were seeded by cells either at 12 × 10^3 MDA-MB-231 cells/well, or at 12 × 10^3 DU 145 cells/well, or at 14 × 10^3 SKOV-3 cells/well, or at 10 × 10^3 A549 cells/well in a volume of 200 µL/well.
(§3) The cell cultures in cultivation plates were allowed to adhere for 24 hour of incubation. On day 1 after cell seeding, 2 µL solutions of the drugs to be tested in medium with 5% FBS was added to the cultures. In the control cultures, 2 µL of medium with 5% FBS was added as solvent control. The cells were incubated for 2 consecutive days. At the end of the incubation period adherent cells were detached by trypsinization and the number of viable cells was counted using trypan blue exclusion test and a hemocytometer. All data were derived from an average of three determinations each in six replicates. The results were expressed as mean cell number ± SE and the differences between control and test series evaluated by means of Student's t-test. The drug cytotoxicity was evaluated based on the extent of cell growth inhibition. The cell growth inhibition of the tested drugs was calculated as follows: Cell growth inhibition,% = (Control-TestSeries)/(Control) × 100 [formula]

[4] = tested on: Human Prostate Carcinoma Cell Line DU 145; settings: alone or in formulation at molar ratio 1:6
Description: as §1, §2, §3

[5] = cytotoxic drug 10^-7 mol/L (100 nM), alone or in formulation at molar ratio 1:6, working solutions in medium with 5% FBS, listed as docetaxel, trihydrate
[6] = cytotoxic drug 10^-7 mol/L (100 nM), alone or in formulation at molar ratio 1:6, working solutions in medium with 5% FBS, trihydrate
[7] = cytotoxic drug 10^-7 mol/L (100 nM), alone or in formulation at molar ratio 1:6, working solutions in medium with 5% FBS, trihydrate, 0.1 µM
[8] = cytotoxic drug 10^-8 mol/L, alone or in formulation at molar ratio 1:6, working solutions in medium with 5% FBS
[9] = cytotoxic drug 10^-9 mol/L, alone or in formulation at molar ratio 1:6, working solutions in medium with 5% FBS
[10] = cytotoxic drug alone 10^-7 mol/L, average of positive controls in medium with 5% FBS, normal saline and saline with 2,3 mM CaCl2
[11] = cytotoxic drug alone 10^-8 mol/L, average of positive controls in medium with 5% FBS, normal saline and saline with 2,3 mM CaCl2
[12] = cytotoxic drug alone 10^-9 mol/L, average of positive controls in medium with 5% FBS, normal saline and saline with 2,3 mM CaCl2
[13] = cytotoxic drug 10^-7 mol/L (100 nM), working solutions in medium with 5% FBS, listed as docetaxel, trihydrate
[14] = cytotoxic drug 10^-7 mol/L (100 nM), working solutions in medium with 5% FBS, trihydrate
[15] = cytotoxic drug 10^-7 mol/L (100 nM), working solutions in medium with 5% FBS, trihydrate, 0.1 µM
[16] = cytotoxic drug 10^-8 mol/L, working solutions in medium with 5% FBS
[17] = cytotoxic drug 10^-9 mol/L, working solutions in medium with 5% FBS

## CC(=O)O[C@@]12CO[C@@H]1C[C@H](O)[C@@]1(C)C(=O)[C@H](O)C3=C(C)[C@@H](OC(=O)[C@H](O)[C@@H](NC(=O)OC(C)(C)C)c4ccccc4)C[C@@](O)([C@@H](OC(=O)c4ccccc4)[C@H]21)C3(C)C [Docetaxel, (2R,3S)-N-carboxy-3-phenylisoserine, N-tert-butyl ester, 13-ester with 5β-20-epoxy-1,2α ,4,7β,10β,13α -hexahydroxytax-11-en-9-one 4-acetate 2-benzoate, trihydrate]
[1]; MDA-MB-231, as concentration of cytotoxic drug, alone or in formulation at molar ratio 1:6, medium with 5% FBS
  IC50: 3.6 nM
[1]; MDA-MB-231, cytotoxic drug 10^-7 mol/L (100 nM), alone or in formulation at molar ratio 1:6, working solutions in medium with 5% FBS
  inhibition at 0.1 µM: 73.3%
[1]; MDA-MB-231, cytotoxic drug 10^-8 mol/L, alone or in formulation at molar ratio 1:6, working solutions in medium with 5% FBS
  inhibition at 0.01 µM: 58.1%
[1]; MDA-MB-231, cytotoxic drug 10^-9 mol/L, alone or in formulation at molar ratio 1:6, working solutions in medium with 5% FBS
  inhibition at 0.001 µM: 38.7%
[1]; MDA-MB-231, cytotoxic drug alone 10^-7 mol/L, average of positive controls in medium with 5% FBS, normal saline and saline with 2,3 mM CaCl2
  inhibition at 0.1 µM: 76.5%
[1]; MDA-MB-231, cytotoxic drug alone 10^-8 mol/L, average of positive controls in medium with 5% FBS, normal saline and saline with 2,3 mM CaCl2
  inhibition at 0.01 µM: 56.3%
[1]; MDA-MB-231, cytotoxic drug alone 10^-9 mol/L, average of positive controls in medium with 5% FBS, normal saline and saline with 2,3 mM CaCl2
  inhibition at 0.001 µM: 36.4%
[1]; MDA-MB-231, cytotoxic drug alone, average of positive controls
  IC50: 4.6 nM
[1]; [5]
  Tumor Cell Number, × 10^3: 15.4 ± 1.02 × 10^3
[1]; [6]
  Tumor Cell Number, × 10^3: 13.7 ± 1.03 × 10^3
[1]; [7]
  Cell Growth Inhibition, %: 75.4* %
[1]; [8]
  Tumor Cell Number, × 10^3: 23.4 ± 2.15 × 10^3
[1]; [9]
  Tumor Cell Number, × 10^3: 34.2 ± 2.28 × 10^3
[1]; [10]
  Tumor Cell Number, × 10^3: 13.6±0.72 × 10^3
[1]; [11]
  Tumor Cell Number, × 10^3: 25.3±1.18 × 10^3
[1]; [12]
  Tumor Cell Number, × 10^3: 36.8±1.70 × 10^3
[2]; Homo sapiens, A549, cytotoxic drug 10^-7 mol/L (100 nM), alone or in formulation at molar ratio 1:6, working solutions in medium with 5% FBS
  inhibition at 0.1 µM: 80.3%
[2]; Homo sapiens, A549, cytotoxic drug 10^-8 mol/L, alone or in formulation at molar ratio 1:6, working solutions in medium with 5% FBS
  inhibition at 0.01 µM: 71.4%
[2]; Homo sapiens, A549, cytotoxic drug 10^-9 mol/L, alone or in formulation at molar ratio 1:6, working solutions in medium with 5% FBS
  inhibition at 0.001 µM: 37.5%
[2]; Homo sapiens, A549, cytotoxic drug alone 10^-7 mol/L, average of positive controls in medium with 5% FBS, normal saline and saline with 2,3 mM CaCl2
  inhibition at 0.1 µM: 80.3%
[2]; Homo sapiens, A549, cytotoxic drug alone 10^-8 mol/L, average of positive controls in medium with 5% FBS, normal saline and saline with 2,3 mM CaCl2
  inhibition at 0.01 µM: 71%
[2]; Homo sapiens, A549, cytotoxic drug alone 10^-9 mol/L, average of positive controls in medium with 5% FBS, normal saline and saline with 2,3 mM CaCl2
  inhibition at 0.001 µM: 36%
[2]; Homo sapiens, A549, as concentration of cytotoxic drug, alone or in formulation at molar ratio 1:6, medium with 5% FBS, calculated from three concentrations, read-out: IC50 mol/L (a)
  IC50: 2.2 nM
[2]; [5]
  Tumor Cell Number, × 10^3: 10.6 ± 0.72 × 10^3
[2]; [6]
  Tumor Cell Number, × 10^3: 10.5 ± 0.97 × 10^3
[2]; [7]
  Cell Growth Inhibition, %: 80.8* %
[2]; [8]
  Tumor Cell Number, × 10^3: 15.6 ± 0.49 × 10^3
[2]; [9]
  Tumor Cell Number, × 10^3: 34.1 ± 2.07 × 10^3
[2]; [10]
  Tumor Cell Number, × 10^3: 11.0±0.73 × 10^3
[2]; [11]
  Tumor Cell Number, × 10^3: 16.2±0.75 × 10^3
[2]; [12]
  Tumor Cell Number, × 10^3: 35.7±1.51 × 10^3
[3]; Homo sapiens, SK-OV-3, cytotoxic drug 10^-7 mol/L (100 nM), working solutions in medium with 5% FBS
  inhibition at 0.1 µM: 68.7%
[3]; Homo sapiens, SK-OV-3, cytotoxic drug 10^-8 mol/L, working solutions in medium with 5% FBS
  inhibition at 0.01 µM: 55.5%
[3]; Homo sapiens, SK-OV-3, cytotoxic drug 10^-9 mol/L, working solutions in medium with 5% FBS
  inhibition at 0.001 µM: 34.2%
[3]; Homo sapiens, SK-OV-3, as concentration of cytotoxic drug, medium with 5% FBS, calculated from three concentrations, read-out: IC50 mol/L (a)
  IC50: 5.2 nM
[3]; [13]
  Tumor Cell Number, × 10^3: 16.1 ± 0.94 × 10^3
[3]; [14]
  Tumor Cell Number, × 10^3: 16.8 ± 0.80 × 10^3
[3]; [15]
  Cell Growth Inhibition, %: 67.8* %
[3]; [16]
  Tumor Cell Number, × 10^3: 23.2 ± 2.19 × 10^3
[3]; [17]
  Tumor Cell Number, × 10^3: 34.3 ± 2.01 × 10^3
[4]; Homo sapiens, DU-145, cytotoxic drug 10^-7 mol/L (100 nM), working solutions in medium with 5% FBS
  inhibition at 0.1 µM: 74.5%
[4]; Homo sapiens, DU-145, cytotoxic drug 10^-8 mol/L, working solutions in medium with 5% FBS
  inhibition at 0.01 µM: 51.8%
[4]; Homo sapiens, DU-145, cytotoxic drug 10^-9 mol/L, working solutions in medium with 5% FBS
  inhibition at 0.001 µM: 34.7%
[4]; Homo sapiens, DU-145, as concentration of cytotoxic drug, medium with 5% FBS, calculated from three concentrations, read-out: IC50 mol/L (a)
  IC50: 8 nM
[4]; [13]
  Tumor Cell Number, × 10^3: 14.2 ± 0.85 × 10^3
[4]; [14]
  Tumor Cell Number, × 10^3: 10.8 ± 0.94 × 10^3
[4]; [15]
  Cell Growth Inhibition, %: 74.0* %
[4]; [16]
  Tumor Cell Number, × 10^3: 20.0 ± 1.16 × 10^3
[4]; [17]
  Tumor Cell Number, × 10^3: 27.1 ± 1.07 × 10^3
